Data set [1] deals with p53 pathway activation (p53-GFP, p21-GFP, BTG2-GFP HepG2 reporters). The data set is classed as cell-based. Conditions: for DDR (p21 and p53 activation): 3D, 4-day repeated dosing. As to the method:
(§1) The HepG2 BAC-GFP reporters for human BTG2, p21 and p53 were generated previously and used to monitor the DDR ([14],[18]). Cells were maintained in DMEM high glucose (Gibco) supplemented with 10% (v/v) fetal bovine serum (FBS), 25 U/ml penicillin and 25 µg/ml streptomycin (referred to as normal DMEM medium) at 37°C and 5% CO2. The reporter cells were tested between passages 19–21 throughout the data presented (Supplementary Figure 1, available at Mutagenesis Online).
(§2) Two different compound exposure scenarios were performed: a single exposure in 2D and a 4-day repeated exposure in 3D. A schematic overview of the tested exposure scenarios for each HepG2 model has been depicted in Figure 1. For the single exposure scenario in 2D, medium was replaced by freshly diluted compound in medium 24 h post seeding. DDRs were monitored after 24, 48 and 72 h by live cell confocal imaging (Figure 1A and B). For the 4-day repeated exposure scenario in 3D, each day medium was replaced by freshly diluted compound in medium for four consecutive days (Figure 1C and D). The imaging was started 24 h after the last exposure. For both scenarios, five compounds in eight concentrations were tested. DMSO, PBS or ultrapure H2O were used as solvent controls. The ATP-lite luminescence kit (Perkin Elmer) was used according to supplier’s protocol to measure cell viability. Measurements were performed 72 h or 24 h post single or repeated exposure, respectively. Absolute IC50 values have been calculated over the ATP-lite data by determining the intersect of the fitted concentration–response curve with the 50% viability baseline via GraphPad prism 8.1.1.
(§3) Prior to imaging, cells were stained with Hoechst 33342 at a concentration of 0.1 µg/ml to visualise the nuclei. To examine compound-induced cell death using confocal microscopy, propidium iodide (PI) was added during all compound exposures at a concentration of 100 µM to stain for necrotic or late apoptotic cells. The induction of GFP intensities and PI were monitored with a Nikon Eclipse Ti confocal laser microscope (Nikon, Amsterdam, The Netherlands), equipped with lasers at wavelengths 408, 488 and 561, an automated stage and perfect focus system at 37°C and 5% CO2. Images for 2D cultures were acquired with a Nikon 20x Dry Plan Apo VC NA 0.75 objective. Images for 3D cultures were acquired with a Nikon 10x Dry Plan Fluor NA 0.3 objective. For each condition, a z-stack of 9–11 images was generated with a step size of 30 µm.
(§4) For 2D cultures, image quantification was performed with Cell Profiler version 2.2.0 (Broad Institute, Cambridge, USA) using modules described previously ([14]). Nuclei segmentation based on Hoechst was done in ImageJ using an in-house developed macro based on the watershed masked clustering algorithm ([27]). Segmentation of the cytoplasmic area was done using the Distance N method expanding the edges of nuclear objects with six pixels followed by subtraction of the nuclear area. p21 and p53-GFP intensities were measured in the nuclei and BTG2-GFP in the cytoplasm. The PI-positive cells were identified by an overlay of the PI signal and the segmented nuclei. A cell was considered positive when there was at least 10% overlap. Results were stored in HDF5 format ([28]). To extract summarised data for further analysis and visualisation, in-house developed R-scripts were used in RStudio (version 1.0.153) (Boston, MA, USA) ([29–31]). The mean nuclear and cytoplasmic intensities of all measured single cells and the fraction of PI-positive cells for each image were extracted as output from the HDF5 files.
(§5) For 3D cultures, the NIS Elements analysis software (Nikon, Amsterdam, The Netherlands) was used to quantify the GFP intensity and PI-positive area within spheroids.

A further data set relates to BTG2-GFP HepG2 reporter. The data set is classed as cell-based. As to the method: as §1, §2, §3, §4, §5
Another data set has as its system p53-GFP HepG2 reporter. As to the kind of experiment: p53-GFP reporter activation, live cell confocal imaging. The data set is classed as cell-based, human. Conditions: 2D, normal DMEM medium. The method, then:
as §1
Two different compound exposure scenarios were performed: a single exposure in 2D and a 4-day repeated exposure in 3D. A schematic overview of the tested exposure scenarios for each HepG2 model has been depicted in Figure 1. For the single exposure scenario in 2D, medium was replaced by freshly diluted compound in medium 24 h post seeding. DDRs were monitored after 24, 48 and 72 h by live cell confocal imaging (Figure 1A and B). […] The ATP-lite luminescence kit (Perkin Elmer) was used according to supplier’s protocol to measure cell viability. […]
Prior to imaging, cells were stained with Hoechst 33342 at a concentration of 0.1 µg/ml to visualise the nuclei. […] The induction of GFP intensities and PI were monitored with a Nikon Eclipse Ti confocal laser microscope (Nikon, Amsterdam, The Netherlands), equipped with lasers at wavelengths 408, 488 and 561, an automated stage and perfect focus system at 37°C and 5% CO2. […]

The test system of the next data set is PHH. On the set-up: method as in PMID 32318794. As to conditions: cited from earlier work.

Like-named read-outs stand apart in the source and are kept apart here.

The source of these data is article PMC9071099, “Towards an advanced testing strategy for genotoxicity using image-based 2D and 3D HepG2 DNA damage response fluorescent protein reporters” (Mutagenesis, 2021).

Take `Cc1c(-c2ccc(-c3ccccc3F)cc2)nc2ccc(F)cc2c1C(=O)O` [Brequinar]: the “DDR (p21 and p53 activation)” value is “induced a DDR (p21 and p53 activation) at the highest concentration” in data set [1] (AAGLY medium); “not seen” in data set [1] (normal DMEM medium). In addition, the DDR result in data set [1] (24 h after exposure) was “no DDR was observed”. In addition, in the data set with BTG2-GFP HepG2 reporter (four culture conditions), the “BTG2-GFP response across culture conditions” value is given as “only induced BTG2-GFP responses in the proliferating HepG2 cultured in 2D in normal DMEM medium”. Besides, the “maximal p53 induction compared to other reporters” value in the data set with p53-GFP HepG2 reporter is on record as ~ 3 fold.

With `N.N.[Cl][Pt][Cl]` [Cisplatin], the “DDR detection (PoD)” value in data set [1] (2D culturing, AAGLY medium) is “could not be detected”. The “concentration giving clear reporter activation” value in data set [1] (AAGLY medium or 3D culture) is no less than 10 µM. The “PoD of reporter activation” value in data set [1] (HepG2 2D, normal DMEM medium) is 0.32 to 1.83 µM. Moreover, the “concentration giving clear concentration-dependent reporter activation” value in data set [1] (all DNA damage reporters, 2D, normal DMEM medium) was no less than 0.46 µM. Moreover, the “PoD (CometChip)” value in the data set with PHH is 6.3 µM.

For `Nc1ccn([C@@H]2O[C@H](CO)[C@@H](O)C2(F)F)c(=O)n1` [Gemcitabine], in data set [1], the “PoD of reporter activation” value was “did not induce a quantifiable genotoxic effect” and the “genotoxic effects (reporter activation)” value is “almost absent”. In addition, in data set [1] (human), the “PoD of reporter activation” value was no more than 0.028 µM. In the data set on BTG2-GFP HepG2 reporter (human), the “BTG2-GFP response across culture conditions” value is recorded as “only induced BTG2-GFP responses in the proliferating HepG2 cultured in 2D in normal DMEM medium”.

On to Aflatoxin B1, for which, in data set [1], the “concentration at which reporter induction was already observed” value was found to be 0.1 µM; the “induction of DNA damage reporters” value is “induced DNA damage reporters (BTG2, p21 and p53) in all culture conditions”; the reporter induction is no more than 4.5 fold. Moreover, the “concentration of peak BTG2-GFP induction” value in the data set on BTG2-GFP HepG2 reporter was 10 µM.
